Earlier results on one substance are cited in US20250215053A1, “LYSINE RICH CELL-PENETRATING PEPTIDES” (OXFORD UNIVERSITY INNOVATION LIMITED, priority 2022, published 2025).

The subject of this series is dystrophin. The note with it: in vivo.

Take eteplirsen: the dystrophin restoration entry is recorded as “approximately 1 % of normal dystrophin levels”.
